Patent US20240415832A1 (priority 2021, published 2024)

Tests used:
C57Bl/6 mice = test: Lack of precipitated withdrawal from oxycodone; settings: for total withdrawal signs: oxycodone mice
5-HT2A = 5-HT2A (Homo sapiens, UniProt P28223); format: binding
D1 = D1 (Homo sapiens, UniProt P21728); format: binding
D2 = D2 (Homo sapiens, UniProt P14416); format: binding
SERT = SERT (Homo sapiens, UniProt P31645); format: binding
C57BL/6J mice = settings: mouse, in vivo

D2, sequence (P14416 1-414 isoform P14416-2): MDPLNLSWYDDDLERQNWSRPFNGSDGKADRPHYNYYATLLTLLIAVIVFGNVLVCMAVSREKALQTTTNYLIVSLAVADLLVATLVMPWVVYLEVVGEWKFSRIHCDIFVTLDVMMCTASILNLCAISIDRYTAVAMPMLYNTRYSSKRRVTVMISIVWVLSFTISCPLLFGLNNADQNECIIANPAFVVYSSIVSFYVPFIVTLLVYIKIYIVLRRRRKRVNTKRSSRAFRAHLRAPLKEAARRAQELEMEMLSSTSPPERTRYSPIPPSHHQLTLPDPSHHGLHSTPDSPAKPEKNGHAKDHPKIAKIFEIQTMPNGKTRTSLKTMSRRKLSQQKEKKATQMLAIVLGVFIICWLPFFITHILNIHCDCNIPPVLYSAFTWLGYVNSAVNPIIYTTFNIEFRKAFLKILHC
5-HT2A, sequence (P28223 whole entry): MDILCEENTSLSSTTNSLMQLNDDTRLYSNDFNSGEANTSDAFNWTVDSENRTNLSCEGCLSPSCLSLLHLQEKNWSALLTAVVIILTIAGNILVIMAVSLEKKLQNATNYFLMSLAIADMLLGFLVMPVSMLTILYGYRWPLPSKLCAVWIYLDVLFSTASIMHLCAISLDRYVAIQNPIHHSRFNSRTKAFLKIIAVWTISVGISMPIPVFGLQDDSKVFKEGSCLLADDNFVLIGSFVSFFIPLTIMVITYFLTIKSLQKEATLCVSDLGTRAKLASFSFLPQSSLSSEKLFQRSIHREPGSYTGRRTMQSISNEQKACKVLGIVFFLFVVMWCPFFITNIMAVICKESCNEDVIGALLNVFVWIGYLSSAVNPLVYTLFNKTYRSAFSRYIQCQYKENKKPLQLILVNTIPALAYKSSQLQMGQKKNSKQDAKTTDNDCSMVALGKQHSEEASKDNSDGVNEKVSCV
D1, sequence (P21728 whole entry): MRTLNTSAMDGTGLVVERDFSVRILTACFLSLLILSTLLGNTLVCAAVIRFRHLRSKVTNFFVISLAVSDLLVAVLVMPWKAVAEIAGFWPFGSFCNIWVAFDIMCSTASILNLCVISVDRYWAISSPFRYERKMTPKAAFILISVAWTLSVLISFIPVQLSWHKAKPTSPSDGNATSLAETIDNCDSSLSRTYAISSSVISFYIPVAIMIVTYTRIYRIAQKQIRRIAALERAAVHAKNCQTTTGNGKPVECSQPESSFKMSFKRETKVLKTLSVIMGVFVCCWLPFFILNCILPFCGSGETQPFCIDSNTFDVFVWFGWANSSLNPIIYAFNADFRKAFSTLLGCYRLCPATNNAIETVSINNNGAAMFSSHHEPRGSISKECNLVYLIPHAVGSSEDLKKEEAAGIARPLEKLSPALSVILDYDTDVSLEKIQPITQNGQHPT
SERT, sequence (P31645 whole entry, species assumed): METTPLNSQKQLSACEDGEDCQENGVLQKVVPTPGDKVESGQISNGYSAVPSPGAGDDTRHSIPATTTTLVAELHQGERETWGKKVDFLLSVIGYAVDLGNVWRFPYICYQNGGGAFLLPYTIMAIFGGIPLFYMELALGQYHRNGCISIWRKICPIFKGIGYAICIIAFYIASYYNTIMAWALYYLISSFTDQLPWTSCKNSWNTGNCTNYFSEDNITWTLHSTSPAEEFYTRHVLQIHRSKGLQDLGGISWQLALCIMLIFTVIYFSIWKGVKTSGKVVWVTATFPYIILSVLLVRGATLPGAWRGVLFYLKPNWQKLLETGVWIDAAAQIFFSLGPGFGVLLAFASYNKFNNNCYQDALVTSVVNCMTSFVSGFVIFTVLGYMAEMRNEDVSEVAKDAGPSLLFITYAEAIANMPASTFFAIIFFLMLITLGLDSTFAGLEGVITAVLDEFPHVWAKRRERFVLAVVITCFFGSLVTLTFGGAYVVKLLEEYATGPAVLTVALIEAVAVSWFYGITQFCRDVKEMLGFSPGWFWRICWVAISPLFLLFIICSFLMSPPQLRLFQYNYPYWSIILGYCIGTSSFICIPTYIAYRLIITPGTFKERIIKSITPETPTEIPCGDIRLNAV

O=C1CN2c3c(cccc3[C@@H]3CN(CCCOc4ccc(F)cc4)CC[C@@H]32)N1 [Example 1, (6bR,10aS)-8-(3-(4-fluorophenoxy)propyl)-6b,7,8,9,10,10a-hexahydro-1H-pyrido[3′,4′:4,5]pyrrolo[1,2,3-de]quinoxalin-2(3H)-one]
somatic signs or loss of body weight (C57Bl/6 mice; chronic saline, 17.8 mg/kg s.c., relative to vehicle (p>0.05)): does not produce any significant effects
number of paw tremors or jumps (C57Bl/6 mice; mice chronically administered oxycodone, doses <10 mg/kg s.c., vs vehicle): do not differ from mice administered vehicle
body weight loss (C57Bl/6 mice; mice receiving oxycodone chronically, <10 mg/kg): does not induce further body weight loss
total withdrawal signs (C57Bl/6 mice; at 10 mg/kg, p<0.05, mainly wet dog shakes): significantly more total withdrawal signs
total withdrawal signs (C57Bl/6 mice; escalating doses (3, 10, 17.8 mg/kg s.c.), p<0.0001): induced greater total withdrawal signs

O=C1CN2c3c(cccc3[C@@H]3CN(CCCc4n[nH]c5cc(F)ccc45)CC[C@@H]32)N1 [Example 2, (6bR,10aS)-8-(3-(6-fluoro-1H-indazol-3-yl)propyl)-6b,7,8,9,10,10a-hexahydro-1H-pyrido[3′,4′:4,5]pyrrolo[1,2,3-de]quinoxalin-2(3H)-one]
Ki (5-HT2A): 2.6 nM
Ki (D1): 5.2 nM
Ki (D2): 15 nM
Ki (SERT): 540 nM

O=C1CN2c3c(cccc3[C@@H]3CN(CCCc4noc5cc(F)ccc45)CC[C@@H]32)N1 [Example 3, (6bR,10aS)-8-(3-(6-fluorobenzo[d]isoxazol-3-yl)propyl)-6b,7,8,9,10,10a-hexahydro-1H-pyrido[3′,4′:4,5]pyrrolo[1,2,3-de]quinoxalin-2(3H)-one]
Ki (5-HT2A): 3.1 nM
Ki (D1): 13 nM
Ki (D2): 84 nM

C=CCN1CC[C@]23c4c5ccc(O)c4O[C@H]2C(=O)CC[C@@]3(O)[C@H]1C5 [Naloxone]
Jumps (C57BL/6J mice): 0
Paw Tremors (C57BL/6J mice): 0.87
Total Number of Signs (C57BL/6J mice): 2.2
body weight loss (C57BL/6J mice): 0.5%
